Source: patent publication US11624056B2, “Method for producing cartilage cells induced to be differentiated from stem cells” (YiPCELL Inc., priority 2017, dated 2023)

Assays:
Type in all cases: cell-based, human
heavy OG cells [1] = test: Proliferation of heavy OG cells cultured in IGF2 inhibitor-treated medium
Protocol: First, among the OG cells obtained in the step iii) of [Example 12], the heavy cells were cultured for 3 days while treating the medium with chromeceptin at a concentration of 2 nM to 2 μM, in the course of inducing differentiation into a chondrogenic pellet according to the step iv). Then, morphology of the cells was observed over the treatment time, and the number of the proliferated cells was counted.

heavy OG cells [2] = test: Chondrogenic differentiation markers of heavy OG cells cultured in IGF2 inhibitor-treated medium
Source text: Accordingly, heavy OG cells were induced to differentiate into a chondrogenic pellet while performing treatment with chromeceptin under the conditions of Example <16-1>, during which the OG cells were obtained, and mRNA was extracted therefrom and used to synthesize cDNA. Using the synthesized cDNA as a template, expression levels of SOX9, COL2A1, COL10A1, and IGF2 were quantitatively analyzed.

heavy OG cells [3] = test: Chondrocyte markers in chondrogenic pellet differentiated in IGF2 inhibitor-treated medium; conditions: 2 mM chromeceptin, treatment after aggregation compared with before aggregation
Protocol: First, among the OG cells obtained in the step iii) of [Example 12], the heavy cells were cultured for 3 days while treating the medium with chromeceptin at a concentration of 2 mM, in the course of inducing differentiation into a chondrogenic pellet according to the step iv). Experimental groups were divided into two groups, that is, the experimental group (before aggregation) in which differentiation into chondrocytes had been induced by performing treatment with chromeceptin from the beginning of formation of a chondrogenic pellet, and the experimental group (after aggregation) in which differentiation into chondrocytes had been induced by performing treatment with chromeceptin from 7 days after induction of formation of a chondrogenic pellet. The differentiated chondrogenic pellets were respectively obtained therefrom. Then, mRNA was extracted from each of the obtained chondrogenic pellets, and the expression levels of COL2A1, SOX9, COL1A1 and COL10A1 were checked.

In the case of CN(C)c1ccc2c(c1)OC(N)=C(C#N)C2c1cccc(C(F)(F)F)c1 (stereo not drawn) [chromeceptin], the “decrease of the number of OG cells” value (heavy OG cells [1]; 2 μM chromeceptin, after 72 hours, compared with untreated control) was at least 3 times, the “degree of proliferation of the cells” value (heavy OG cells [1]; chromeceptin 2 nM to 2 μM, 3 days) was “decreases with increased treatment concentration” and the “expression level of SOX9” value (heavy OG cells [2]; 2 μM chromeceptin, compared with untreated control (Normal Ctrl)) was “remarkably increases”. For the same compound, the “expression level of IGF2 in the OG cells” value (heavy OG cells [2]; chromeceptin 2 nM to 2 μM) was “decreases with increased treatment concentration”, the “expression level of SOX9” value (heavy OG cells [2]; chromeceptin 2 nM to 2 μM) was “significantly increases with increased treatment concentration” and the “expression level of SOX9 in chondrogenic pellet” value (heavy OG cells [3]) was “significantly increased”.
